Results taken from patent US20240408112A1, “METHOD FOR PREVENTING OR TREATING PULMONARY ARTERIAL HYPERTENSION BY USING 7-DEHYDROCHOLESTEROLS OR SALTS, OXIDES, METABOLITES, OR DERIVATIVES THEREOF” (EXCELSIOR PHARMATECH LABS., priority 2023, published 2024).

What was measured:
[1] = system: human pulmonary artery endothelial cells (hPAEC); test: BrdU cell proliferation assay, 10% FBS, hPAEC; format: cell-based
Procedure: (§1) BrdU (5-bromo-2-deoxyuridine) cell proliferation assay (BrdU assay)
(§2) A 48-well plate was used, and 1.5×10^4 cells were implanted in each well. After 24 hours, the medium was changed to serum-free culture medium and synchronized for 24 hours. A 2-fold concentration of the compound in serum-free culture medium is prepared and the cells were pretreated for 1 hour. Then, the same volume of culture medium containing 20% fetal bovine serum (FBS) was added to dilute the compound. The final concentration was 10% FBS culture medium and 1 times the concentration of the compound. In the experimental group that added TGF-β, the same volume of TGF-β culture medium containing 10 ng/mL was added, with a final concentration of 5 ng/mL TGF-β and 1 times the concentration of the compound, and in the experimental group added with TGF-β, the entire process was conducted in culture medium containing 0.1% serum. Then, BrdU reagent was added about 6 hours later, and the cells were collected the next day for enzyme-linked immunosorbent assay (ELISA) analysis, the compound treatment time was about 24 hours, and the BrdU treatment time was about 18 hours.
(§3) Five compounds to be tested were screened by cell survival assay (MTT assay) and BrdU (5-bromo-2-deoxyuridine) cell proliferation assay, and the information of these compounds was listed in Table 1 below. Tables 2 and 3 respectively listed the growth inhibitions of on human pulmonary artery endothelial cells (hPAEC), human pulmonary artery smooth muscle cells (hPASMC), normal rat pulmonary artery smooth muscle cells (rPASMC, as the control group, represented by “CON”), and rat pulmonary artery smooth muscle cells (represented by “MCT”), by the five compounds to be tested under the conditions of 10% FBS, 0.1% FBS and 100 pM TGF-β.

[2] = system: human pulmonary artery smooth muscle cells (hPASMC); test: BrdU cell proliferation assay, 10% FBS, hPASMC; format: cell-based
Procedure: as §1, §2, §3

[3] = system: normal rat pulmonary artery smooth muscle cells (rPASMC CON); test: BrdU cell proliferation assay, 10% FBS, rPASMC CON; format: cell-based
Procedure: as §1, §2, §3

[4] = system: PAH rat pulmonary artery smooth muscle cells (rPASMC MCT); test: BrdU cell proliferation assay, 10% FBS, rPASMC MCT; format: cell-based
Procedure: as §1, §2, §3

[5] = system: human pulmonary artery endothelial cells (hPAEC); test: BrdU cell proliferation assay, 0.1% FBS, 100 pM TGF-β, hPAEC; format: cell-based; details: hPAEC, 100 pM TGF-β, 0.1% FBS
Procedure: as §1, §2, §3

[6] = system: monocrotaline induced pulmonary hypertension rat; test: Monocrotaline-induced pulmonary arterial hypertension rat model, Example 2 (7-DHC, 042); format: in vivo; details: for Arterial gas analysis pH value, PaO2 and PaCO2, in words: between groups CON, MCT and treated; for Base excess (BE) value: MCT group −5.5, normal −2 to +2
Source text: (§4) Pulmonary arterial hypertension animal experimental model
(§5) The present disclosure utilizes injection of monocrotaline to induce symptoms of pulmonary arterial hypertension in rats to establish a pulmonary arterial hypertension animal experimental model suitable for screening test drugs.
(§6) The diagnostic method of clinical pulmonary arterial hypertension standards is right heart catheterization, which is defined as mean pulmonary arterial pressure (mPAP) greater than or equal to 20 mmHg. The diagnostic criteria for pulmonary arterial hypertension, in addition to an increase in mean pulmonary arterial pressure, need to be combined with pulmonary vascular resistance (PVR) greater than 3 Wood unit. The right ventricle pressure (RVP) and systemic mean blood pressure (mbp) in rats with pulmonary arterial hypertension were measured by Millar Model PCU200 pressure system, and the heart rate (HR) was also monitored at the same time. After measuring the hemodynamic data, the arterial blood was extracted from the carotid artery of the pulmonary arterial hypertension rat, and the Abbott blood oximeter (i-STAT) combined with Abbott's special chip cartridge (i-STAT Cartridge G3+) was used to measure arterial gas analysis data such as pH, PaO2, PaCO2, HCO3 and base excess (BE) value in quantitative whole blood samples. The normal pH value is between 7.35 and 7.45, and the pH value indicates whether the experimental animal has the condition of acidemia, alkalemia, acidosis or alkalosis. The normal value of PaO2 is between 80 and 100 mmHg, which reflects the effectiveness of gas exchange (ventilation/perfusion). The normal value of PaCO2 is between 35 and 45 (such as 38 and 42) mmHg, which can evaluate the effectiveness of alveolar ventilation. The acid produced by food, tissue decomposition, inflammation and hypoxia rely on the lungs to excrete volatile acid CO2 (short-term) and the bicarbonate (HCO3^−) produced by the kidneys (long-term) to neutralize non-volatile acids, while the normal value of bicarbonate hydrogen radical (HCO3^−) is between 22 and 26 meq/L. BE is the base excess value, its normal value ranges from −2 to +2, the negative value represents the degree of alkali ion deficiency in the blood, a negative BE value (−) that is too high indicates metabolic acidosis, and a positive value (+) that is too high is metabolic alkalosis. At the end of the experiment, the rats were sacrificed and their hearts were removed and the left and right ventricles were separated and weighed (RV)/(S)+(LV).
Monocrotaline (MCT) was utilized to induce pulmonary hypertension rat animal model, the TGF-β receptor inhibitor 7-DHC (039) and compound No. 042 were tested via intraperitoneal (IP) administration, and the physiological parameters of the animals were collected, wherein includes measuring right ventricle pressure, systemic arterial pressure, heartbeat and right ventricle hypertrophy, as well as observing and analyzing the pulmonary artery thickening and blood oxygenation levels through pathological sections of lung tissue. Specifically, 7-DHC (039) was divided into two groups with a dosage of 10 mg/kg or 20 mg/kg, the dosage of group 042 was 50 mg/kg, each dosage group has 3 rats (n=3), while the control group (CON) and the pulmonary arterial hypertension rat group (MCT) had 6 rats (n=6) respectively.

[7] = system: monocrotaline induced pulmonary arterial hypertension rat; test: Monocrotaline-induced pulmonary arterial hypertension rat model, Example 3 (7-DHC vs macitentan); format: in vivo; details: for Right ventricle pressure (RVP): 25th day after monocrotaline induction, MCT rats 28.97 mmHg; for Arterial gas analysis PaO2 and PaCO2, in words: between groups CON, MCT and treated; for Thickening of pulmonary arteries, in words: p<0.001, vs MCT rats (exceeded 65%); for Base excess (BE) value: MCT group −6, normal −2 to +2; for Average right ventricle hypertrophy ratio (RV/S+LV): MCT rats 71.64%, normal rats 26.7%
Source text: as §4, §5, §6
Monocrotaline was utilized to induce pulmonary arterial hypertension rat animal model, intraperitoneal injection (IP) TGF-β receptor inhibitor 7-DHC (039) and oral administration of macitentan (soluble in methylcellulose), 7-DHC (039) was divided into two groups according to the dosage: 10 mg/kg or 20 mg/kg, and the dosage of macitentan group was 30 mg/kg.

[8] = Rattus norvegicus, read-out: EC50 (concentration for 50% of maximal effect)

SMILES: CC(C)CCCC(C)C1CCC2C3=CC=C4CC(O)CCC4(C)C3CCC21C (centres unmarked) [Code 039, 7-DHC]
- EC50 ([1]; Homo sapiens, Endothelial cell, read-out: EC50 (concentration for 50% of maximal effect)): 47 µM
- Inhibition of cell growth (in words) ([1]; hPAEC, 10% FBS, FIG. 2): inhibition of cell growth can also be observed
- EC50 ([2]; Homo sapiens, read-out: EC50 (concentration for 50% of maximal effect)): 53 µM
- Inhibition of cell growth (in words) ([2]; hPASMC, 10% FBS, FIG. 2): inhibition of cell growth can also be observed
- EC50 [3, 8]: 38 µM
- Inhibition of cell growth (in words) ([3]; rPASMC CON1, 10% FBS, FIG. 2): significant inhibitory effects
- EC50 [4, 8]: 37 µM
- Inhibition of cell growth (in words) ([4]; rPASMC MCT4, 10% FBS, FIG. 2): significant inhibitory effects
- EC50 ([5]; Homo sapiens, Endothelial cell, read-out: EC50): 23 µM
- Inhibition of cell growth (in words) ([5]; 25 μM, FIG. 3): inhibition of cell growth
- Arterial gas analysis pH value, PaO2 and PaCO2, in words ([6]; 10 mg/kg IP): did not show any significant differences
- Thickness of the pulmonary artery blood vessels (medial wall thickness), in words ([6]; 10 mg/kg IP, p<0.001, vs MCT rats (exceeded 55%)): significantly reduced
- Base excess (BE) value ([6]; 10 mg/kg IP): −2
- Animal survival status ([6]; 20 mg/kg IP, 23rd day after monocrotaline induction): had died
- Arterial gas analysis pH value, PaO2 and PaCO2, in words ([6]; 20 mg/kg IP): did not show any significant differences
- Base excess (BE) value ([6]; 20 mg/kg IP): 0
- Systemic blood pressure and heartbeat, in words ([6]; 10 or 20 mg/kg IP): did not reduce
- Right ventricle pressure (RVP), in words ([6]; 10 or 20 mg/kg IP, vs MCT rats (28 mmHg)): can be reduced
- Right ventricle pressure (RVP) ([7]; 10 mg/kg IP): 17.61 mmHg
- Arterial gas analysis PaO2 and PaCO2, in words ([7]; 10 mg/kg IP): no significant difference
- Thickening of pulmonary arteries, in words ([7]; 10 mg/kg IP): significantly reduced
- Base excess (BE) value ([7]; 10 mg/kg IP): −3
- Average right ventricle hypertrophy ratio (RV/S+LV) ([7]; 10 mg/kg IP): 53.96%
- Activity of the rats ([7]; 20 mg/kg IP): did not affect
- Survival rate ([7]; 20 mg/kg IP): 100%
- Weight of rats ([7]; 20 mg/kg IP): decreased significantly
- Right ventricle pressure (RVP) ([7]; 20 mg/kg IP): 19.96 mmHg
- Arterial gas analysis PaO2 and PaCO2, in words ([7]; 20 mg/kg IP): no significant difference
- Thickening of pulmonary arteries, in words ([7]; 20 mg/kg IP): significantly reduced
- Base excess (BE) value ([7]; 20 mg/kg IP): −1.4
- Average right ventricle hypertrophy ratio (RV/S+LV) ([7]; 20 mg/kg IP): 62.97%
- Systemic average blood pressure and heartbeat, in words ([7]; 10 or 20 mg/kg IP): did not significantly reduce
